Source: patent US8741930B2 (Bridge Pharma, Inc., priority 2008, dated 2014)
Read-outs that look alike come from different tables or passages of the source.

Columns and labels:
tear flow [1] = test: Tear flow, phenol red thread (modified Schirmer's test) after ocular instillation; format: in vivo, mice; details: for Tear flow, length of red area of thread, Mean ± SEM: 0.07% solution, 0.05 mL twice daily, 45 min after 5th instillation, N=8; for Effect on tear flow: topical administration to the eyes of laboratory animals
Method: All instillations were performed twice daily and consisted of 0.05 mL. A total of five instillations were administered. Tear measurements were performed 45 minutes after the first drug instillation on Day 3, by carefully placing the bent end of a Zone-Quick phenol red impregnated cotton thread (FCI Ophthalmics, Pembrooke, Mass.) at the intercanthus of the eye and holding it in place for 30 seconds. After removal, the length of the red area of the thread was measured in millimeters. During tear measurements, all animals were lightly anesthetized with isoflurane in order to reduce movement and stress.

histamine wheal response = test: Antihistaminic activity in vivo: histamine-induced wheal after oral dosing; set-up: species or system rats
Method: Male rats (150-200 g) were starved overnight and twelve hours after dorsal depilation, the animals were orally pretreated with the test compound(s). Four dorsal test areas were marked with permanent ink, carefully avoiding the area closest to the spine. Exactly 60 min after the dosing of the test compound, two intradermal injections of histamine (50 microliter; 1.0 mg/ml of histamine di-HCl) were performed, one on each side on the back of the animal. Two intradermal injections of the vehicle for the histamine solution were also performed. Evans blue dye (20 mg/kg) was injected iv 1 minute prior to the intra-dermal injections of histamine and the histamine vehicle. Twenty minutes were allowed for the wheal response to fully develop, whereupon the animals were euthanized and the dorsal skin containing the intradermal wheals were deflected. The blue spotted areas were measured in square millimeters and the duplicate vehicle wheal responses were averaged. In vehicle-treated animals, the wheal area, on average, was increased by histamine by 98 mm^2. The inhibition was calculated in percent difference from this baseline value.

[2] = target: muscarinic receptors (antimuscarinic activity); details: Wolff et al. 2007; cited from earlier work
tear flow [3] = details: U.S. Pat. No. 7,247,623; cited from earlier work
Maximal solubility = format: physicochemical
Source text: Ocular formulations of norketotifen to be used by individuals suffering from a dry eye syndrome may be hypotonic or isotonic. Thus, the acceptable osmolality may range from about 150 mOsm to about 350 mOsm.

CN1CCC(=C2c3ccccc3CC(=O)c3sccc32)CC1.O=C(O)/C=C/C(=O)O [KETOTIFEN HF, reference compound]
Tear flow, length of red area of thread, Mean ± SEM (tear flow [1]): 4.25 ± 0.250 mm

O=C1Cc2ccccc2C(=C2CCNCC2)c2ccsc21 (racemic) [Norketotifen]
inhibition at 1 mg/kg (histamine wheal response; Rattus norvegicus, 1 mg/kg oral, versus vehicle histamine effect): 6%
inhibition at 10 mg/kg (histamine wheal response; Rattus norvegicus, 10 mg/kg oral, versus vehicle histamine effect): 83%
Absorption after oral administration (histamine wheal response; rats, oral): well absorbed
Statistical significance of effect in modified Schirmer's test (tear flow [1]; 45 minutes after the 5th treatment): statistically significant effects
Effect on tear flow (tear flow [1]): increase tear flow

CN(C)CC/C=C1/c2ccccc2COc2ccc(CC(=O)O)cc21 [olopatadine]
IC50 [2]: 1740 nM
Effect on tear flow (tear flow [3]): reduce tear flow

O=C(O)/C=C/C(=O)O.O=C1Cc2ccccc2C(=C2CCNCC2)c2ccsc21 [norketotifen hydrogen fumarate]
Tear flow, length of red area of thread, Mean ± SEM (tear flow [1]): 4.62 ± 0.263 mm
Maximal solubility (Maximal solubility; in saline): 4500 µg/mL
Maximal solubility (Maximal solubility; in water): 2700 µg/mL

CN1CCC(=C2c3ccccc3CC(=O)c3sccc32)CC1 [Ketotifen, reference compound]
Effect on tear flow (tear flow [1]): not to increase tear flow
